Among the test systems are SF-268; CCRF-CEM; EKVX; HCC 2998; OVCAR-8; RXF 393; OVCAR-4; TK-10; SF-295; HOP-92; SR; UO-31; HCT-15; SK-MEL-28; M14; SN12C.
Assay in all cases: NCI anticancer screen, dose series, 48 h

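These data come from cells grown in 96-well plates and exposed to compound for 48 hours at five concentrations. GI50 is the concentration that inhibits growth by half.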 Activity calls are given as the source filed them. Rule as the data show it: active = GI50 up to about 1.1 µM and inactive = higher.

As for `C[N+]1(C)C/C(=C\c2ccncc2)C(=O)/C(=C/c2ccncc2)C1`, the GI50 with SF-268 was 25.2 µM (inactive); with CCRF-CEM, 37.1 µM (inactive); in the test on EKVX, > 100 µM (inactive); in the test with HCC 2998, > 100 µM (inactive); in the test on OVCAR-8 it was > 100 µM (inactive); with RXF 393, > 100 µM (inactive). In addition, the GI50 in the test with OVCAR-4, with TK-10, in the test on SF-295, with HOP-92, in the test with SR and with UO-31 was > 100 µM (inactive) each time. For the same molecule, the GI50 in the test with HCT-15 was greater than 100 µM; in the test on SK-MEL-28, > 100 µM (inactive); in the test on M14, > 100 µM (inactive); in the test on SN12C, > 100 µM (inactive).
As to `COC[C@H](C)/N=C/N1CCc2ccccc2C1(Cc1ccccc1)Cc1ccccc1`, the GI50 is 21.9 µM (inactive) with SF-268; 12.9 µM (inactive) in the test on CCRF-CEM; 29.9 µM (inactive) with EKVX; 15.1 µM (inactive) in the test with OVCAR-8; 15.2 µM (inactive) in the test with RXF 393; 12.8 µM (inactive) in the test with OVCAR-4. The GI50 with TK-10 is 17.8 µM (inactive); in the test on SF-295, 14.5 µM (inactive); in the test on HOP-92, 15.6 µM (inactive); in the test on SR, 11.6 µM (inactive); in the test on UO-31, 12.9 µM (inactive); in the test on HCT-15 it was 11 µM. Besides, the GI50 was 11.1 µM (inactive) with SK-MEL-28, 10.3 µM (inactive) with M14 and 10.3 µM (inactive) in the test on SN12C.
Consider `O=C1C2c3[nH]c4ccccc4c3[C@@H]3CCCCCCCCCCC3C2C(=O)N1c1ccccc1` (stereo partly specified), for which the GI50 in the test with SF-268 is 13.6 µM (inactive); in the test with EKVX it was 55.1 µM (inactive); in the test with HCC 2998, 27.5 µM (inactive); in the test on OVCAR-8, 18.1 µM (inactive); in the test with RXF 393, 14.8 µM (inactive); with OVCAR-4, 17.6 µM (inactive). Moreover, the GI50 in the test with TK-10 is 20 µM (inactive); in the test on SF-295, 16.3 µM (inactive); in the test with SR, 12.8 µM (inactive); with UO-31, 32.9 µM (inactive); with HCT-15, 38.6 µM; in the test on SK-MEL-28, 23.2 µM (inactive). The GI50 in the test on M14 is 15.3 µM (inactive); in the test on SN12C, 18.6 µM (inactive).
For the molecule `COc1cc(C2C(Cl)C(=O)N2NC(=O)Cc2ccccc2)cc(Br)c1O` (stereo unspecified), the GI50 in the test with SF-268 is 61 µM (inactive); in the test with CCRF-CEM it was 46.1 µM (inactive); in the test on EKVX, 94.8 µM (inactive); in the test on HCC 2998, > 100 µM (inactive); with OVCAR-8, > 100 µM (inactive); with RXF 393 it was 92.3 µM (inactive). Further, the GI50 in the test with OVCAR-4 was 63.5 µM (inactive); in the test with TK-10 it was > 100 µM (inactive); in the test with SF-295, > 100 µM (inactive); in the test with SR, 56.6 µM (inactive); in the test with UO-31 it was 64.9 µM (inactive); with HCT-15, 51.8 µM. Besides, the GI50 in the test with SK-MEL-28, in the test on M14 and in the test on SN12C was > 100 µM (inactive) throughout.
Consider `C[C@H]1CCC2C(CN3CCCCC3)C(=O)OC2[C@]2(C)C(=O)CC(N3CCCCC3)C12O` (stereo partly specified), for which the GI50 in the test with SF-268 is 6.95 µM (inactive); in the test on CCRF-CEM it was 2.34 µM (inactive); in the test on EKVX, 4 µM (inactive); in the test on HCC 2998 it was 5.87 µM (inactive); with OVCAR-8, 1.79 µM (inactive); with RXF 393 it was 1.86 µM (inactive). The GI50 was 16.6 µM (inactive) in the test on TK-10; 9.1 µM (inactive) with SF-295; 2.68 µM (inactive) in the test with HOP-92; 2.49 µM (inactive) in the test on SR; 13.7 µM (inactive) in the test with UO-31; 4.18 µM (inactive) in the test on SK-MEL-28. In addition, the GI50 in the test on SN12C is 3.75 µM (inactive).
On to `Cc1cc2c(C)nn(Cc3ccccc3)c2c(C(=O)O)c1C`, for which the GI50 in the test on SF-268, in the test with CCRF-CEM, in the test with EKVX, in the test with HCC 2998, with OVCAR-8 and in the test with RXF 393 was > 100 µM (inactive) each time. In addition, the GI50 with TK-10 was > 100 µM (inactive); in the test on SF-295, > 100 µM (inactive); in the test with HOP-92 it was > 100 µM (inactive); in the test with SR it was > 100 µM (inactive); in the test with UO-31 it was > 100 µM (inactive); with HCT-15, greater than 100 µM. Also, the GI50 in the test on SK-MEL-28 and with SN12C was > 100 µM (inactive) in each case.
Turning to `Cc1cc2c(c(N)c1C)C(=O)c1ccccc1C2=O`, the GI50 in the test on SF-268 is 25.5 µM (inactive); in the test with CCRF-CEM, > 100 µM (inactive); with HCC 2998, 40.6 µM (inactive); in the test with OVCAR-8, 20 µM (inactive); with RXF 393 it was 29 µM (inactive); with OVCAR-4 it was 17.5 µM (inactive). The GI50 with TK-10 is 37.5 µM (inactive); in the test on SF-295 it was 27.4 µM (inactive); with HOP-92 it was 18 µM (inactive); in the test on SR, > 100 µM (inactive); in the test on UO-31, 10.6 µM (inactive); in the test with HCT-15 it was 45.8 µM. Further, the GI50 in the test with M14 was 29.2 µM (inactive); in the test on SN12C, 49.1 µM (inactive).
Turning to `CCC1CCc2c(OC)ccc(OCC(=O)O)c2C1=O` (stereo unspecified), the GI50 in the test on SF-268, with CCRF-CEM, in the test with EKVX, with HCC 2998, in the test with OVCAR-8 and in the test with RXF 393 was > 100 µM (inactive) throughout. Moreover, the GI50 is > 100 µM (inactive) in the test with OVCAR-4; > 100 µM (inactive) in the test with TK-10; > 100 µM (inactive) with SF-295; > 100 µM (inactive) in the test on SR; > 100 µM (inactive) in the test on UO-31; greater than 100 µM with HCT-15. The GI50 with SK-MEL-28, with M14 and in the test with SN12C was > 100 µM (inactive) in each case.
As to `CCOC(=N)CC(=O)Nc1ccc(Cl)cc1`, the GI50 in the test with SF-268, in the test with CCRF-CEM, with EKVX, with HCC 2998, in the test on OVCAR-8 and in the test on RXF 393 was > 100 µM (inactive) throughout. Besides, the GI50 in the test with OVCAR-4 was > 100 µM (inactive); in the test with TK-10 it was > 100 µM (inactive); with SF-295, > 100 µM (inactive); in the test on SR it was > 100 µM (inactive); in the test on UO-31, > 100 µM (inactive); with HCT-15 it was greater than 100 µM. Besides, the GI50 in the test on SK-MEL-28, in the test with M14 and in the test with SN12C was > 100 µM (inactive) in each case.
As to `COC(=O)c1onc(-c2c(OC)cc(OC)cc2OC)c1C(=O)OC`, the GI50 with SF-268, in the test with CCRF-CEM, in the test with EKVX, in the test on HCC 2998, in the test with OVCAR-8 and in the test on RXF 393 was > 100 µM (inactive) each time. Further, the GI50 in the test on OVCAR-4, in the test on TK-10, with SF-295, in the test with HOP-92, in the test on SR and in the test on UO-31 was > 100 µM (inactive) each time. The GI50 was greater than 100 µM in the test with HCT-15, > 100 µM (inactive) in the test on SK-MEL-28 and > 100 µM (inactive) with M14.

These data come from ChEMBL document CHEMBL1201862, “PubChem BioAssay data set” (2004).
